Here are results for 19 compounds from patent US7968601B2, “Adamantyl acetamides as 11-β hydroxysteroid dehydrogenase inhibitors” (Janssen Pharmaceutica N.V., priority 2002, dated 2011).

In general, melting point refers to the temperature, or range, at which the solid turns liquid.

For series [1], the target named is T1, 11b-HSD1 (Mus musculus, UniProt P50172).
T1 construct: endogenous in cells; host or cells: 3T3-L1 (ATCC-CL-173), differentiated into adipocytes
The series is described as follows: Cellular assay, 11b-HSD1 activity in differentiated 3T3-L1 cells. The conditions noted are these: 4 hour pre-incubation, pIC50 scored 1-3, read-out: [C2] HSD1 cellular 3T3-L1 Score. It is filed as cell-based. Summed up:
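Mouse 3T3-L1 fibroblasts differentiated to adipocytes (insulin, IBMX, dexamethasone), pre-incubated 4 h with compound (3×10^-9 to 10^-5 M final), then 0.5 μCi ³H-cortisone or dehydrocorticosterone added for 1 h. Medium ether-extracted, steroid conversion analysed by HPLC; pIC50 from dose-response curves, scored 1 (<5), 2 (5–6), 3 (>6).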

Series [2] concerns the target 11b-HSD1 (Homo sapiens, UniProt P28845). Description: Enzymatic assay, 11b-HSD1 reductase activity (conversion of cortisone into cortisol). It is filed as biochemical. Particulars: pIC50 scored 1-3, read-out: [C1] HSD1-prot Reduct Score. Summed up: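 Recombinant human 11b-HSD1 (11 µg) with 2 µM cortisone and 180 µM NADPH in 30 mM Tris-HCl pH 7.2, 1 mM EDTA, incubated 45 min at 37 °C. Cortisol formation was measured by HPLC with a corticosterone internal standard. Compounds were tested from 10^−5 M to 3.10^−9 M, and pIC50 was scored as 1 (<5), 2 (5–6) or 3 (>6).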

Series [3] addresses T2, 11b-HSD2 (Homo sapiens, UniProt P80365).
T2 sequence (P80365 1-405): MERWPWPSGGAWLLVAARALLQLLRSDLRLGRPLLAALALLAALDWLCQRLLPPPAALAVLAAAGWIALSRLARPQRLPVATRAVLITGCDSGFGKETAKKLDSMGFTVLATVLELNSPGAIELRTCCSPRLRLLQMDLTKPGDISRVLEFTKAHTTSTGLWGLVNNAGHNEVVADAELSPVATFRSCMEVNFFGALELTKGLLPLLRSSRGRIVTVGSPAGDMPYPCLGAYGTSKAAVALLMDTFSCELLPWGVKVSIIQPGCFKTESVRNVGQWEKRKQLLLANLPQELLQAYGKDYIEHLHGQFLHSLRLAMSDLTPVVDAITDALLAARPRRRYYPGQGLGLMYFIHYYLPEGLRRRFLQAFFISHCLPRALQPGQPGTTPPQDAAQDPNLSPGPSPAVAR
The series is described as follows: Enzymatic assay, 11b-HSD2 dependent dehydrogenase activity. It is filed as biochemical. The conditions noted are these: 11b-HSD2 dehydrogenase activity, pIC50 scored 1-3, read-out: [C1] HSD2 prot Dehydro Score. Summed up: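 Recombinant human 11b-HSD2 (2.5 μg) incubated 45 min at 37 C in 0.1M sodium phosphate pH 7.5 with 300 μM NAD and 100 nM cortisol (2 nM 3H-labelled). Product measured by HPLC; compounds at final […] to 3.10^−9M, pIC50 from dose-response curves, scored 1 (<5), 2 (5–6), 3 (>6).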

For series [4], the target named is T2, 11b-HSD2. Description: Cellular assay, 11b-HSD2 activity in HepG2 cells. In kind it is cell-based. On the set-up: endogenous in cells; host or cells: HepG2 (ATCC HB-8065). Particulars: 4 hour pre-incubation, pIC50 scored 1-3, read-out: [C2] HSD2 cellular HepG2 Score. Summed up: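 HepG2 cells in charcoal-stripped FCS were pre-incubated 4 h with compound, then given 0.5 μCi ³H-cortisol or corticosterone for 1 h. Medium was ether-extracted and steroids resolved by HPLC. Final compound range was 10^−5 M to 3·10^−9 M, and pIC50 from dose-response curves was scored in three bands.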

pIC50: −log10 of the molar value. Counter-ions that a name gives are not always drawn.

Sequence of 11b-HSD1 (Homo sapiens, UniProt P28845) (P28845 whole entry): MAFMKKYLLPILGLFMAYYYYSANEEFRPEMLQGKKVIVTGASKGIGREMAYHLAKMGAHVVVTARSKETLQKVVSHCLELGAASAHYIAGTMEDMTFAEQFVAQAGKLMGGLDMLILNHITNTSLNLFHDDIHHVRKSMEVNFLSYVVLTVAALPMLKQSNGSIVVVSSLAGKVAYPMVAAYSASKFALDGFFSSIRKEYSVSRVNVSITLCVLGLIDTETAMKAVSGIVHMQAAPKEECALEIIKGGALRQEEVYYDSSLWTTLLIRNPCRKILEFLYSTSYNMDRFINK
T1 sequence (P50172 whole entry): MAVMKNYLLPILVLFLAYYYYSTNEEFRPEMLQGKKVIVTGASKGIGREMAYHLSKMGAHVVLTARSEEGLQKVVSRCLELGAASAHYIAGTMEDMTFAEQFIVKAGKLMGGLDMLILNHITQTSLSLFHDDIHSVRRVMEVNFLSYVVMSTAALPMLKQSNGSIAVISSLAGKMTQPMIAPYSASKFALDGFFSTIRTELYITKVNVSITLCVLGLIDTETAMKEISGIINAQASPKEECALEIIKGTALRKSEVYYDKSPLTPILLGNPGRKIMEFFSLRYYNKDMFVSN

For `O=C(NC1C2CC3CC(C2)CC1C3)N1CCc2ccccc2C1` (stereo not shown) [Compound 201], the melting point lay in the range of 145 to 147 °C.

`COc1cccc(C(C)(C)C(=O)N[C@H]2[C@@H]3CC4C[C@H]2C[C@](F)(C4)C3)c1` [Compound 189] returned a melting point of 105 to 107 °C.

`CC(C)(C(=O)N[C@H]1[C@@H]2CC3C[C@H]1C[C@](F)(C3)C2)c1cccc(OCCN2CCOCC2)c1` (as salt: HCl) [Compound 228]: the melting point fell in the range of 208 to 210 °C.

On to `O=C(O)COc1cccc2c1CCN(C(=O)NC1C3CC4CC(C3)CC1C4)C2` (stereo not shown) [Compound 257], for which the melting point was in the range of 215 to 220 °C.

With `CN1CCN(CCOc2cccc(C(C)(C)C(=O)NC3C4CC5CC(C4)CC3C5)c2)CC1` (stereo not shown) [Compound 199], the melting point was 165 to 170 °C.

On to `COc1cccc(C(C)(C)C(=O)N[C@@H]2[C@@H]3CC4C[C@H]2C[C@](F)(C4)C3)c1` [Compound 188], for which the melting point lay in the range of 110 to 112 °C.

Compound `Cc1cccc(C(C)(C)C(=O)N[C@H]2[C@@H]3CC4C[C@H]2C[C@](F)(C4)C3)c1` [Compound 187] returned a melting point of 115 to 117 °C.

The compound `CC(C)(C(=O)N[C@H]1[C@@H]2CC3C[C@H]1C[C@](O)(C3)C2)c1cccc(OCCN2CCOCC2)c1` (as salt: HCl) [Compound 158] returned a melting point of 155 to 160 °C.

Turning to `O=C(N[C@H]1[C@@H]2CC3C[C@H]1C[C@](F)(C3)C2)N1CCCc2ccccc21` [Compound 226], the melting point is 182 to 184 °C.

For the compound `O=C(N[C@@H]1[C@@H]2CC3C[C@H]1C[C@](O)(C3)C2)N1CCCc2ccccc21` [Compound 219], the melting point was 185 to 188 °C.

Compound `O=C(NC1C2CC3CC(C2)CC1C3)N1CCCc2ccccc21` (stereo not shown) [Compound 200] came in with a melting point of 163 to 165 °C.

Turning to `O=C(N[C@H]1[C@@H]2CC3C[C@H]1C[C@](O)(C3)C2)N1CCCc2ccccc21` [Compound 218], the melting point lay within 170 to 172 °C.

Compound `CC(C)(C(=O)N[C@H]1[C@@H]2CC3C[C@H]1C[C@](F)(C3)C2)c1cccc(OCC(=O)O)c1` [Compound 227] came in with a melting point of 210 to 215 °C.

Consider `CC(C)(C(=O)NC1C2CC3CC(C2)CC1C3)c1ccc(OCCN2CCOCC2)cc1` (stereo not shown) [Compound 73], for which the pIC50 in series [1] was over 6.00; in series [2], under 5.00; in series [3] it was under 5.00; in series [4], under 5.00.

With `Cc1cc(CCC(=O)O)cc(C(C)(C)C(=O)NC2C3CC4CC(C3)CC2C4)c1` (stereo not shown) [Compound 230], the pIC50 in series [1] is over 6.00; in series [2], over 6.00; in series [3], under 5.00; in series [4], under 5.00.

Consider `CC(C)(C(=O)NC1C2CC3CC(C2)CC1C3)c1ccsc1` (stereo not shown) [Compound 133], for which the pIC50 is over 6.00 in series [1], under 5.00 in series [2], under 5.00 in series [3] and under 5.00 in series [4].

Take `COc1cccc(C(C)(C)C(=O)N[C@@H]2[C@@H]3CC4C[C@H]2C[C@](O)(C4)C3)c1` [Compound 155]: the melting point was 165 to 167 °C.

`Cc1cc(C)c2c(c1)C(C(=O)NC1C3CC4CC(C3)CC1C4)=CCC2` (stereo not shown) [Compound 181]: the pIC50 was over 6.00 in series [1], under 5.00 in series [2], under 5.00 in series [3] and under 5.00 in series [4].

As to `CC(C)(C(=O)NC1C2CC3CC(C2)CC1C3)c1cccc(/C=C/C(=O)OCc2ccccc2)c1` (stereo not shown) [Compound 198], the pIC50 in series [1] is over 6.00; in series [2] it was under 5.00; in series [3], under 5.00; in series [4], under 5.00.
